Source: patent publication US5273992A, “Method for reducing sickle erythrocyte dehydration and delaying the occurrence of erythrocyte sickling in-situ” (Beth Israel Hospital Assoc. Inc., priority 1992, dated 1993)
Several values for one entry are separate records, joined by “and”; a condition that tells them apart may be missing. Equal values may be shown once. Entries after “also recorded” stand apart in the source; their conditions may differ. Read-outs that look alike come from different tables or passages of the source.

Columns and labels:
[1] = molecular target: T1, Ca^2+-activated K+ channel (Gardos channel) of sickle erythrocytes (Homo sapiens, UniProt O15554); test: Ca^2+-activated ^86Rb influx in sickle (SS) erythrocytes; assay type: cell-based
T1 construct: Blood was collected after obtaining informed consent from patients; endogenous in cells; host or cells: erythrocytes (SS) from patients homozygous for Hb S
Description: Patients homozygous for Hb S disease were selected. Blood was collected after obtaining informed consent from patients followed in the Hematology Division Clinic at Brigham and Women's Hospital and in the Boston Comprehensive Sickle Cell Center at Boston City Hospital. None of the patients had been transfused in the preceding 120 days.
Other experiments were carried out in normal saline (140 mM NaCl, 2 mM KCl, 10 mM tris-HCl, pH 8.0). At the end of the incubation, triplicate samples of each cell suspension were spun at 3,000 g for 10 min. The supernatant was then removed and a smaller volume of medium containing A23187 (60 μM CaCl2, and ^86 Rb was added to achieve a final Hct of 4-5%. Aliquots of cell suspension were taken at specified times (1, 3, and 5 min) and spun through 0.8 ml of medium with 5 mM EGTA and a 0.4 ml cushion of butyl-phthalate. The resultant supernatant and the upper layer of oil were carefully removed, the tube contents frozen at -80° C. and the tube tip containing the cell pellet cut off and counted.

[2] = molecular target: T2, Ca^2+-activated K+ channel of SS cells (Homo sapiens, UniProt O15554); test: Displacement of ^125I-ChTX binding in sickle erythrocytes; details: for ^125I-ChTX displacement, % of total: 90 min
T2 construct: Blood was collected after obtaining informed consent from patients; endogenous in cells; host or cells: erythrocytes (SS) from patients homozygous for Hb S
Description: White cells were removed by passing 0.8 mL of packed red cells through a 5 ml syringe containing a mixture of equal parts of alfa-cellulose and microcrystalline cellulose as originally described by Beutler and West [J. Lab. Clin. Med. 88:328-333 (1976)]. Red cells were washed 3 times in binding medium containing 18 mM NaCl, 2 mM KCl, 10 mM tris-Cl, pH 8.0, 230 mM sucrose and 0.25% bovine serum albumin. A suspension was then made in the same medium at 15% Hct. […] Tubes containing cell suspension were gently rotated for 90 min at room temperature. At the end of the incubation, aliquots of 1 ml were pelleted by microfuge and washed 3 times at 4° C. with a solution containing 200 mM NaCl, 10 mM tris-Cl, pH 8.0. The washed red cell pellet was then lysed in 1 ml of 0.01% Acationox®, and counted in a gamma counter. Aliquots of binding medium were counted prior to addition of cells and at the end of the binding assay.
^125 I-ChTX is a specific ligand of the Ca^2 + activated K+ channel of human red cells. […] To examine the interaction between CLT and the Ca^2 +activated K+ channel of SS cells, the question whether CLT can displace ^125 I-ChTX (50 pM) bound to SS cells was tested.

[3] = test system: AE1 (band 3) chloride/bichloride exchanger; test: ^35SO4 influx into AA erythrocytes (AE1 function); assay type: cell-based, human
Description: The protocol used by Schofield et al. [Nature 355:836-838 (1992)] was used to measure ^35 SO2- uptake in AA erythrocytes.
To determine if the inhibition of Ca^2 +-activated ^86 Rb flux was secondary to an inhibitory effect on the membrane Cl-permeability, the effect of the various compounds on the ^35 SO4 influx was assessed. This assay is a measure of function of the major transport system for red cells, the AE1 (band 3) chloride/bichloride exchanger.

[4] = molecular target: Gardos channel of sickle erythrocytes (Homo sapiens, UniProt O15554); test: Membrane potential (Em) of SS cells with activated Gardos channel; assay type: cell-based
Sequence of Gardos channel of sickle erythrocytes (O15554 whole entry): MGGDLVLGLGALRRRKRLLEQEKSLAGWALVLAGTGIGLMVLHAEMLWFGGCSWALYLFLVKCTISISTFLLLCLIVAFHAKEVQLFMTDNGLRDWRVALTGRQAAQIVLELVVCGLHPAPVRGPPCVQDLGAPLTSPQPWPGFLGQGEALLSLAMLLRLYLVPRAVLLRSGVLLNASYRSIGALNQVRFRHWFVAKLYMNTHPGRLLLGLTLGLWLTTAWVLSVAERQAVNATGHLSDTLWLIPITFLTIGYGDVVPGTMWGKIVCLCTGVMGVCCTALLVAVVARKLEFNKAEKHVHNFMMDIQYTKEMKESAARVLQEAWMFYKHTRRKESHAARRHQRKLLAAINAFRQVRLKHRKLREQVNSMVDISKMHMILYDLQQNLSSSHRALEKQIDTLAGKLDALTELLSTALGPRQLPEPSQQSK
Description: Measurements of the proton distribution ratio in unbuffered media in the presence of the proton ionophore CCCP allow estimation of the red cell membrane potential (Em). Erythrocytes were washed twice at room temperature with unbuffered medium of the desired composition and added with stirring to 5 ml of the same medium to a final Hct of 5%. All media contained 100 μM ouabain, 10 μM bumetanide, 10 μM DIDS, 10 μM methazolamide and 50 μM CCCP (50 mM stock solution in DMSO. The medium was maintained at 37° C., and pH was recorded for one min prior and 10 min following addition of the red cells. Inhibitors were added to the specified final concentration by appropriate dilution from 10 mM stocks. For internal pH measurements, 20 μl of 10% (v/v) Triton X-100 were added to the cell suspension in unbuffered medium under stirring, and the pH of the resultant lysate measured and assumed to equal pHi. Em was calculated from the equation [formula] [pHi --pHo ], as detailed in Halpern et al, Am. J. Physiol. 257:c986-c996 (1989).
When the Gardos channel is activated, the increased permeability for K+ shifts the membrane potential away from the equilibrium potential for Cl- (ECI) toward the equilibrium potential for K+(EK). This effect is magnified with the Cl-permeability is inhibited by DIDS.

[5] = test system: SS cells (sickle erythrocytes); assay type: cell-based, human; details: for Inhibition of dehydration of SS cells (in words): 60 μmol A23187/L cells, 100 μM CaCl2; for Cell K content at end of incubation: SS cells, A23187 + Ca^2+, average of three experiments (control 279±20, Ca^2+ alone 84.9±24)
Description: Cells were incubated for 60 min at 37° C. in a medium containing 140 mM NaCl, 4 mM KCl, 100 μM CaCl2, 1 mM K-phosphate buffer, pH 7.40, 10 mM tris-MOPS, pH 7.40, at 1-2% Hct. A23187 was subsequently added to a final concentration of 60 μmol/l cells under stirring. At the specified time intervals, the cell suspension was diluted with an equal amount of medium containing 5 MM EGTA and 0.1% BSA. The red cells were then washed four times with the same medium at 37° C. This procedure allowed for chelation of extracellular Ca^2 + and removal of A23187. An aliquot of cells washed in this medium was used to measure the distributions of cell volume and hemoglobin concentration with the H2-Technicon blood analyzer, while the remaining cells were washed four times with choline washing solution (144 mM Choline Cl, 1 mM MgCl2, 10 mM tris-MOPS, pH 7.40 at 4° C.) for measurements of internal Na and K contents.
291-300; Ohnishi et al., Biochim Biophys. Acta 1010:199-203 (1989): Horruchi et al., Blood 71:46-51 (1988)]. However, the results are highly dependent on the protocol used for deoxygenation and reoxygenation of SS cells. We reasoned that the inhibitory effect of CLT and other antimycotics on the dehydration mediated by the Ca^2 +-activated K+ channel should be assessed under conditions of maximal activation of this pathway. If the inhibitor is effective in blocking dehydration in these conditions, it should be able to block dehydration due to transient activation of the channel as during sickling. Accordingly, cells were exposed to A23187 in the presence of 100 μM CaCl2 in a medium containing 140 mM NaCl, 4 mM KCI, at pH 7.40, with or without the transport inhibitors.
After removal of ionophore and chelation of Ca, cell volume and hemoglobin concentration were measured on a cell per cell basis with the Technicon H-2 blood analyzer. […] Distribution histograms for red cell volume and hemoglobin concentration are presented in the lower panel. Arbitrarily established gates (hemoglobin concentration<28 and >41 g/dL; cell volume<60 and>120 fL) are used to define hypo- and hyperchromic cells and micro- and macrocytic cells, respectively. The distribution in the control SS cells (incubated with A23187 in the presence of 1 mM EGTA) resembles a teardrop, with reticulocytes and cells with low HC and high MCV in the top side of middle and left quadrant, discocytes in the central quadrant, and dehydrated dense cells in the right side of the middle quadrant. SS cells exposed to A 23187 and Ca^2+ were markedly dehydrated, as shown by the shift of the hemoglobin concentration (HC) histogram to higher values and by the increased HC values (FIG. 4). […] Measurements of cell cation content at the end of the incubation support the view that these effects are due to inhibition of K loss. […]

[6] = molecular target: T1, Ca^2+-activated K+ channel (Gardos channel) of sickle erythrocytes; test: Ca^2+-activated ^86Rb influx in sickle (SS) erythrocytes; assay type: cell-based; details: medium 20 mM salt (low ionic strength); for IC50: Dixon plot analysis, read-out: Inhibition of ^86Rb influx, IC50
[7] = in vivo; cited from earlier work
[8] = test system: Ca^2+ activated K+ channel of human red cells; details: normal red cells; 50 nM cold ChTX; cited from earlier work
[9] = Inhibition of ^86Rb influx, IC50
[10] = SS erythrocytes, medium 140 mM salt (normal saline)
[11] = SS erythrocytes, medium 20 mM salt
[12] = SS erythrocytes, medium 140 mM salt (normal saline), Dixon plot analysis, read-out: Inhibition of ^86Rb influx, IC50
[13] = SS erythrocytes, medium 20 mM salt, read-out: ^125I-ChTX displacement, IC50

## Clc1ccccc1C(c1ccccc1)(c1ccccc1)n1ccnc1 [Clotrimazole, 1-[(2-chlorophenyl)diplenylmethyl]-1H-imidazole]
[1]
  Inhibition of Ca^2+-activated ^86Rb influx / K+ transport (in words): markedly inhibited
  Inhibition of ^86Rb influx, % maximum: 87% and 93%
[2]
  ^125I-ChTX displacement (in words): displaced ^125 I-ChTX in a dose-dependent manner
[2]; sickle erythrocytes
  ^125I-ChTX displacement, % of total: 74.5%
[3]
  Influx of the anion SO4: not affected
[4]; SS cells, A23187 and 50 μM CaCl2
  Effect on K+ permeability and membrane potential (Em): markedly reduced K+ permeability and shifted Em from EK
[4]; low ionic strength vs normal saline, listed as CLT
  Inhibitory potency on membrane potential changes: higher in low ionic strength conditions than in normal saline
[5]; 10 μM CLT, 50 nM ChTX, listed as CLT
  Inhibition of dehydration of SS cells (in words): more pronounced than that by 50 nM ChTX; also recorded: substantially prevented dehydration; also recorded: markedly inhibited the dehydration of sickle cells
[5]; 10 μM CLT
  Cell K content at end of incubation: 210±30 mmol/Kg Hb

## Clc1ccc(COC(Cn2ccnc2)c2ccc(Cl)cc2Cl)cc1 (stereo not shown) [Econazole, 1-[2-[(4-chlorophenyl)methoxyl]-2-(2,14-dichlorophenyl)ethyl]-1H-imidacole]
[1]
  Inhibition of ^86Rb influx, % maximum: 31% and 47%
[1]; [9]
  IC50: 270 nM and 575 nM
[2]
  IC50: 205 nM
[2]; sickle erythrocytes
  ^125I-ChTX displacement, % of total: 37%

## OC(Cn1cncn1)(Cn1cncn1)c1ccc(F)cc1F [Fluconazole]
[1]; SS erythrocytes
  Inhibition of Ca^2+-activated ^86Rb influx / K+ transport (in words): non-active
[1]; SS erythrocytes, listed as fluconazole
  Inhibition of Ca^2+-activated ^86Rb influx / K+ transport (in words): no inhibition
[1]; [10]
  Inhibition of ^86Rb influx, % maximum: 0%
[2]; [11]
  ^125I-ChTX displacement, % of total: 19%
[6]
  Inhibition of ^86Rb influx, % maximum: 0%

## Cc1ncc([N+](=O)[O-])n1CCO [Metronidazole, 2-methyl-5-nitroimidazole-1-ethanol]
[1]; SS erythrocytes
  Inhibition of Ca^2+-activated ^86Rb influx / K+ transport (in words): partially inhibited
  Sequence / rank of inhibitory potency on the Gardos pathway: clotrimazole>miconazole>econazole>metronidazole
[1]; [10]
  Inhibition of ^86Rb influx, % maximum: 36%
[1]; [12]
  IC50: 440 nM
[2]; [11]
  ^125I-ChTX displacement, % of total: 49%
[2]; [13]
  IC50: 580 nM
[6]
  Inhibition of ^86Rb influx, % maximum: 28%
  IC50: 850 nM

## Clc1ccc(COC(Cn2ccnc2)c2ccc(Cl)cc2Cl)c(Cl)c1 (stereo not shown) [Miconazole]
[1]
  Inhibition of ^86Rb influx, % maximum: 63% and 49%
[1]; [9]
  IC50: 110 nM and 100 nM
[2]
  IC50: 165 nM
[2]; sickle erythrocytes
  ^125I-ChTX displacement, % of total: 57%
[7]
  Marrow hyoplasia, share of the use cases: 40%

## Cc1ncc([N+](=O)[O-])n1CC(O)CCl (stereo not shown) [Ornidazole]
[1]; SS erythrocytes
  Inhibition of ^86Rb influx at 10 μM (in words): only marginally
[1]; [10]
  Inhibition of ^86Rb influx, % maximum: 21%
[6]
  Inhibition of ^86Rb influx, % maximum: 11%

## CCS(=O)(=O)CCn1c([N+](=O)[O-])cnc1C [Tinidazole]
[1]; SS erythrocytes
  Inhibition of ^86Rb influx at 10 μM (in words): only marginally
[1]; [10]
  Inhibition of ^86Rb influx, % maximum: 3%
[6]
  Inhibition of ^86Rb influx, % maximum: 21%

## CHARYBDOTOXIN
[1]; [10]
  Inhibition of ^86Rb influx, % maximum: 52%
[1]; [12]
  IC50: 0.36 nM
[2]; [11]
  ^125I-ChTX displacement, % of total: 74.5%
[2]; [13]
  IC50: 0.033 nM
[5]; 10 μM CLT, 50 nM ChTX
  Inhibition of dehydration of SS cells (in words): partially inhibited dehydration
[5]; 50 nM ChTX
  Cell K content at end of incubation: 192.8±39 mmol/Kg Hb
[6]
  Inhibition of ^86Rb influx, % maximum: 95.5%
  IC50: 0.096 nM
[8]
  Total binding displaced by excess cold ChTX: 60-70%
